Read-outs that look alike come from different tables or passages of the source. Where a SMILES comes first, the peptide text is derived from it. [ ]: non-standard residue; d: D form. Aib = CC(C)(N)C(=O)O
How the values were obtained:
[1] = biological target: T1, GLP-1R (Homo sapiens, UniProt P43220); experiment: Whole-cell binding assay, competition with 125I-GLP-1(7-36)NH2; set-up: Flag; expressed in transfected cells; conditions: for binding Span / IC50: CHO-K1
Experimental: (§1) Human embryonic kidney 293 cells containing SV40 large T-antigen (HEK293T) were cultured in DMEM (Gibco) supplemented with 10% (v/v) fetal bovine serum (FBS, Gibco), 1 mM sodium pyruvate (Gibco) and 100 units/mL penicillin and 100 μg/mL streptomycin at 37 °C in 5% CO2. Chinese hamster ovary (CHO-K1) cells were cultured in F-12 (Gibco) containing 10% FBS, 100 units/mL penicillin and 100 μg/mL streptomycin at 37 °C in 5% CO2. For cAMP and receptor expression assays, HEK293T cells were seeded into 6-well cell culture plates at a density of 7 × 10^5 cells per well. After overnight incubation, cells were transfected with GIPR, GLP-1R or GCGR construct using Lipofectamine 2000 or Lipofectamine 3000 transfection reagent (Invitrogen). For whole-cell binding assay, CHO-K1 cells were seeded into 96-well fibronectin-treated cell culture plates at a density of 3 × 10^4 cells per well. After overnight incubation, cells were transfected with GIPR, GLP-1R or GCGR construct using Lipofectamine 2000 transfection reagent (Invitrogen). Following 24 h culturing, the transfected cells were ready for use.
(§2) For GLP-1R and GCGR, CHO-K1 cells (30,000 cells/well) were seeded into Isoplate-96 plates and incubated for 24 h at 37 °C in 5% CO2. The WT or mutant constructs were transiently transfected using Lipofectamine 2000 transfection reagent as previous described. They were then washed twice using F-12 with 0.1% BSA or 0.1% casein, 33 mM HEPES, and incubated for 2 h at 37 °C. […] Cells were washed three times with ice-cold PBS and lysed in PBS with 1% Triton X-100, 20 mM Tris-HCl. After addition of scintillation cocktail (PerkinElmer), radioactivity (CPM) was counted on a MicroBeta^2 microplate counter (PerkinElmer). Data were normalized to the WT response and analyzed using three-parameter logistic equation.

[2] = biological target: T1, GLP-1R; experiment: cAMP accumulation assay, GLP-1R WT, mutant or modified constructs; assay type: cell-based; set-up: Flag; expressed in transfected cells; host or cells: HEK293T; conditions: for EC50 / Emax: HEK293T; for Emax: HEK-293T
Experimental: as §1
The human GLP-1R was modified with its native signal sequence (M1-P23) replaced by the HA signal peptide to facilitate receptor expression. To obtain a GLP-1R–Gs complex with good homogeneity and stability, we used the NanoBiT tethering strategy, in which the C terminus of GLP-1R was directly attached to LgBiT subunit followed by a TEV protease cleavage site and a double MBP tag. […] The constructs were cloned into both pcDNA3.1 and pFastBac vectors for functional assays in mammalian cells and protein expression in insect cells, respectively. Other constructs including the full-length and various mutants of human GLP-1R were cloned into pcDNA3.1 vector for cAMP accumulation and whole-cell binding assays.
For GIPR, GLP-1R and GCGR, multi-targeting agonist stimulated cAMP accumulation was measured by a LANCE Ultra cAMP kit (PerkinElmer). After 24 h culture, the transfected cells were seeded into 384-well microtiter plates at a density of 3,000 cells per well in HBSS supplemented with 5 mM HEPES, 0.1% (w/v) BSA or 0.1% (w/v) casein and 0.5 mM 3-isobutyl-1-methylxanthine. The cells were stimulated with different concentrations of peptide agonists for 40 min at RT. Eu-cAMP tracer and ULight^TM-anti-cAMP were then diluted by cAMP detection buffer and added to the plates separately to terminate the reaction. Plates were incubated at RT for 1 h and the fluorescence intensity measured at 620 nm and […] by an EnVision multilabel plate reader (PerkinElmer).

[3] = biological target: GCGR (Homo sapiens, UniProt P47871); experiment: Whole-cell binding assay, competition with 125I-GCG; set-up: V5 (C); 6×His (C); expressed in transfected cells; host or cells: CHO-K1; conditions: for binding Span / binding pIC50: GCGR WT, CHO-K1
Experimental: as §1, §2

[4] = biological target: T2, GIPR (Homo sapiens, UniProt P48546, Y36A); experiment: Whole-cell binding assay, competition with 125I-GIP1-42; set-up: acylated tirzepatide to the full-length or modified; Flag; expressed in transfected cells; conditions: GIPR Y36A, CHO-K1
T2 sequence (P48546 22-466 Y36A): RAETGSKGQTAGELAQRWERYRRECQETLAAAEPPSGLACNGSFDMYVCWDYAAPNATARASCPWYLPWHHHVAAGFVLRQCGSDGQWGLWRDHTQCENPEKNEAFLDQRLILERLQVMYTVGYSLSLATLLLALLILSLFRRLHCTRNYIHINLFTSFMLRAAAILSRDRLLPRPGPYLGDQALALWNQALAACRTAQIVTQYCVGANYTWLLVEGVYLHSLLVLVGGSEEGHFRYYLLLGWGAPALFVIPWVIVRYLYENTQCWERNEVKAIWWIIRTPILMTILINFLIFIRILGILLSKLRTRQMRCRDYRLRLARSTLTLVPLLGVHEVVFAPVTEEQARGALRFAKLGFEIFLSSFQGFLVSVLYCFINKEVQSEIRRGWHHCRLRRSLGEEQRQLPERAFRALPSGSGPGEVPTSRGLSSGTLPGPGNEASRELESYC
Procedure, shortened: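 Transiently transfected CHO-K1 cells expressing WT or mutant GIPR were washed in F-12 with 0.1% BSA or 0.1% casein and 33 mM HEPES, then incubated 2 h at 37 °C. After ice-cold PBS washes, cells were lysed and bound radioactivity counted (CPM).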

[5] = GLP-1R WT, 0.1% BSA, read-out: cAMP accumulation pEC50 (converted)
[6] = GLP-1R WT, 0.1% BSA, read-out: cAMP accumulation Emax
[7] = GLP-1R WT, 0.1% casein, read-out: cAMP accumulation Emax

T1 sequence (P43220 24-463): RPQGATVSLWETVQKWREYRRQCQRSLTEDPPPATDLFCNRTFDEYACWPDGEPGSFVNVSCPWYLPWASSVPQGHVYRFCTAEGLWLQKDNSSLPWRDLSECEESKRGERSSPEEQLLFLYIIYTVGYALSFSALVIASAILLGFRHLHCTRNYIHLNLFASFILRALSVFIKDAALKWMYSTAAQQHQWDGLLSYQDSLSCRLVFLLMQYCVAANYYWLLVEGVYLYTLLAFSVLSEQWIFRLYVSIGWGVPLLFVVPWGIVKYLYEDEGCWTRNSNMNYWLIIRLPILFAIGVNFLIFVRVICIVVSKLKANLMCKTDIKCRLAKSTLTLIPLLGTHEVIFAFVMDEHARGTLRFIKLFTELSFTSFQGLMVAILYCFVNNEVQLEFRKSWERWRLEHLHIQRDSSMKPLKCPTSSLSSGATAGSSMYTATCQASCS
GCGR, sequence (P47871 26-477): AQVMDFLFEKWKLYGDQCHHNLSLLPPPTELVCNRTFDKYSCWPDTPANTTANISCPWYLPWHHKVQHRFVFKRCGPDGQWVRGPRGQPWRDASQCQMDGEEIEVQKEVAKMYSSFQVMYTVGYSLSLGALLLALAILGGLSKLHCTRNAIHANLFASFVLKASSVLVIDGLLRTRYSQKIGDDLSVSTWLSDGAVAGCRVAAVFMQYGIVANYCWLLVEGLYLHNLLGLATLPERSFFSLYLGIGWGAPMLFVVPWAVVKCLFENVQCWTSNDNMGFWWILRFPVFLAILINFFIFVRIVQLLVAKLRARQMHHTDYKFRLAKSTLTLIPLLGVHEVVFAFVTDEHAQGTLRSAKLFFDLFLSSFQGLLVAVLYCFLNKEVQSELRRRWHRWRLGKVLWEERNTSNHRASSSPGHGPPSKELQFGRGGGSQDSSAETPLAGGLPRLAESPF

Compound	binding Span ([1]; GLP-1R WT, 0.1% casein)	IC50 ([1]; GLP-1R WT, 0.1% casein, read-out: Binding pIC50 (converted)) [nM]	binding Span ([1]; GLP-1R, effect of tirzepatide acylation)	IC50 ([1]; GLP-1R, effect of tirzepatide acylation, read-out: binding pIC50 (converted)) [nM]	EC50 [2, 5] [nM]	EC50 ([2]; GLP-1R, effect of tirzepatide acylation, read-out: cAMP pEC50 (converted)) [nM]	Emax [2, 6] [%]	Emax [2, 7] [%]	Emax ([2]; GLP-1R, effect of tirzepatide acylation, read-out: cAMP Emax) [%]	binding Span ([3]; 0.1% BSA)	binding pIC50 ([3]; 0.1% BSA)	binding Span ([3]; 0.1% casein)	binding pIC50 ([3]; 0.1% casein)	decrease of binding ability (IC50) vs peptide 20 ([1]; GLP-1R, 0.1% casein or 0.1% BSA)	influence on cAMP accumulation vs peptide 20 ([2]; GLP-1R, 0.1% BSA)	GCGR (pIC50 ± S.E.M.) ([3]; Fig. 7c receptor binding profile, n = 3 in duplicate)	binding Span [4] [% WT]	IC50 ([4]; read-out: binding pIC50 (converted)) [nM]
CC[C@H](C)[C@H](NC(=O)[C@H](CC(C)C)NC(=O)[C@H](Cc1c[nH]c2ccccc12)NC(=O)[C@H](CCC(N)=O)NC(=O)[C@@H](NC(=O)[C@H](Cc1ccccc1)NC(=O)[C@H](C)NC(=O)[C@H](CCCCN)NC(=O)[C@H](CCC(N)=O)NC(=O)[C@H](C)NC(=O)[C@@H](NC(=O)[C@H](CCCCN)NC(=O)[C@H](CC(=O)O)NC(=O)[C@H](CC(C)C)NC(=O)C(C)(C)NC(=O)[C@@H](NC(=O)[C@H](CO)NC(=O)[C@H](Cc1ccc(O)cc1)NC(=O)[C@H](CC(=O)O)NC(=O)[C@H](CO)NC(=O)[C@@H](NC(=O)[C@H](Cc1ccccc1)NC(=O)[C@@H](NC(=O)CNC(=O)[C@H](CCC(=O)O)NC(=O)C(C)(C)NC(=O)[C@@H](N)Cc1ccc(O)cc1)[C@@H](C)O)[C@@H](C)O)[C@@H](C)CC)[C@@H](C)CC)C(C)C)C(=O)N[C@@H](C)C(=O)NCC(=O)NCC(=O)N1CCC[C@H]1C(=O)N[C@@H](CO)C(=O)N[C@@H](CO)C(=O)NCC(=O)N[C@@H](C)C(=O)N1CCC[C@H]1C(=O)N1CCC[C@H]1C(=O)N1CCC[C@H]1C(=O)N[C@@H](CO)C(N)=O [Non-acylated tirzepatide]	80.39 ± 9.18	24.5	81.36 ± 4.36 % WT or Tirzepatide	12.3	0.00468	0.00794	99.1 ± 1.65	98.76 ± 0.97	100 ± 0.88	–	–	–	–	–	–	–	–	–
CC(C)C[C@H](NC(=O)[C@H](CC(C)C)NC(=O)[C@H](Cc1c[nH]c2ccccc12)NC(=O)[C@H](CCC(N)=O)NC(=O)[C@@H](NC(=O)[C@H](Cc1ccccc1)NC(=O)[C@H](CC(=O)O)NC(=O)[C@H](CCC(N)=O)NC(=O)[C@H](C)NC(=O)[C@H](C)NC(=O)[C@H](CCCNC(=N)N)NC(=O)[C@H](CCC(=O)O)NC(=O)[C@H](CC(=O)O)NC(=O)[C@H](CC(C)C)NC(=O)[C@H](Cc1ccc(O)cc1)NC(=O)[C@H](CCCCN)NC(=O)[C@H](CO)NC(=O)[C@H](CCCCN)NC(=O)[C@H](CC(=O)O)NC(=O)[C@H](CO)NC(=O)[C@@H](NC(=O)[C@H](Cc1ccccc1)NC(=O)[C@@H](NC(=O)CNC(=O)[C@H](CCC(N)=O)NC(=O)C(C)(C)NC(=O)[C@@H](N)Cc1c[nH]cn1)[C@@H](C)O)[C@@H](C)O)C(C)C)C(=O)N[C@@H](CC(=O)O)C(=O)NCC(=O)NCC(=O)N1CCC[C@H]1C(=O)N[C@@H](CO)C(=O)N[C@@H](CO)C(=O)NCC(=O)N[C@@H](C)C(=O)N1CCC[C@H]1C(=O)N1CCC[C@H]1C(=O)N1CCC[C@H]1C(=O)N[C@@H](CO)C(N)=O [Non-lipidated peptide 20] (H-H[Aib]QGTFTSDKSKYLDERAAQDFVQWLLDGGPSSGAPPPS-NH2; N-terminus and C-terminus assumed)	–	–	–	–	0.00288	–	99.7 ± 1.41	99.2 ± 1.39	–	N.B.	N.B.	N.B.	N.B.	3- to 17 fold	inappreciably influenced	–	–	–
CC[C@H](C)[C@H](NC(=O)[C@H](CC(C)C)NC(=O)[C@H](Cc1c[nH]c2ccccc12)NC(=O)[C@H](CCC(N)=O)NC(=O)[C@@H](NC(=O)[C@H](Cc1ccccc1)NC(=O)[C@H](C)NC(=O)[C@H](CCCCNC(=O)COCCOCCNC(=O)COCCOCCNC(=O)CC[C@H](NC(=O)CCCCCCCCCCCCCCCCCCC(=O)O)C(=O)O)NC(=O)[C@H](CCC(N)=O)NC(=O)[C@H](C)NC(=O)[C@@H](NC(=O)[C@H](CCCCN)NC(=O)[C@H](CC(=O)O)NC(=O)[C@H](CC(C)C)NC(=O)C(C)(C)NC(=O)[C@@H](NC(=O)[C@H](CO)NC(=O)[C@H](Cc1ccc(O)cc1)NC(=O)[C@H](CC(=O)O)NC(=O)[C@H](CO)NC(=O)[C@@H](NC(=O)[C@H](Cc1ccccc1)NC(=O)[C@@H](NC(=O)CNC(=O)[C@H](CCC(=O)O)NC(=O)C(C)(C)NC(=O)[C@@H](N)Cc1ccc(O)cc1)[C@@H](C)O)[C@@H](C)O)[C@@H](C)CC)[C@@H](C)CC)C(C)C)C(=O)N[C@@H](C)C(=O)NCC(=O)NCC(=O)N1CCC[C@H]1C(=O)N[C@@H](CO)C(=O)N[C@@H](CO)C(=O)NCC(=O)N[C@@H](C)C(=O)N1CCC[C@H]1C(=O)N1CCC[C@H]1C(=O)N1CCC[C@H]1C(=O)N[C@@H](CO)C(N)=O [Tirzepatide]	–	–	–	–	–	–	99.7 ± 1.5	99.1 ± 1.73	–	–	–	–	–	–	–	N.B.	40.56 ± 12.64	275

Reference: article PMC8881610 (Nature Communications, 2022)
